Measured values reported in US8710252B2, “Hepodxilin analog enantiomers” (priority 2006, dated 2014).
Entries after “also recorded” stand apart in the source; their conditions may differ.

Tests used:
[1] = molecular target: T1, Ga14-DBD-PPAR gamma-LBD fusion protein (Homo sapiens, UniProt P37231); experiment: PPAR gamma transactivation assay (Gal4-PPAR gamma LBD / UASx4-TK-luc reporter); assay type: cell-based
T1 construct: expressed in transfected cells; host or cells: mouse embryonic fibroblasts (MEFs) or ME3 cells
T1 sequence (P37231 238-503 limits assumed): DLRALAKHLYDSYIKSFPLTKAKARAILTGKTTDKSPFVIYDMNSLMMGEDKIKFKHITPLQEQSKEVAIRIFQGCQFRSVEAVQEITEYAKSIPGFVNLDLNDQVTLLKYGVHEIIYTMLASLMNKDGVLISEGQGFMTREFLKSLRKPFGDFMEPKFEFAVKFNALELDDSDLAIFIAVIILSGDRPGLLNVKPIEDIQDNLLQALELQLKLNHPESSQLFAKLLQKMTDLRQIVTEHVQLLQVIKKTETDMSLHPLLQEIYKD
Excerpt: The UASx4-TK-luc reporter construct (where UAS refers to “upstream activator sequence”) contains four Ga14-responsive elements. The plasmid Ga14-PPAR gammaLBD encodes a Ga14-DBD-PPAR gamma-LBD fusion protein (i.e. the DNA-binding domain, DBD, of Ga14 fused to the ligand-binding domain, LBD, of PPAR gamma) capable of transactivating the UASx4-TK-luc reporter plasmid by binding to the UAS. The CMV-beta-galactosidase plasmid (where CMV is cytomegalovirus) was used for normalization of experimental values.
The cells were replated, typically in 24 well plates, so that at the time of transfection the cells were 50-70% confluent.
Briefly, per well in a 24 well plate, UASx4TKIuc (0.2 microg) Ga14-PPAR gammaLBD (or pM-hPPAR gamma-LBD; 0.1 microg) and CMV-beta-galactosidase (0.05 microg) in 30 μL DMEM (free of serum and antibiotics) was mixed with 30 microL DMEM (free of serum and antibiotics) containing 1 microL metafectenein. The mixture was incubated at room temperature for 20 min to allow formation of nucleic acid-lipid complexes and then approximately 60 micros was added to each well containing the 50-70% confluent cells. […] Cells were harvested after 12-24 hours and luciferase and beta-galactosidase activities were measured according to standard protocols.
Each experiment was carried out with triplicate samples with 0.1, 1 or 10 microM racemate or purified enantiomer.

[2] = test system: Caspase-3 cleavage in K562 cells; experiment: Caspase-3 cleavage in K562 cells, Western blot; assay type: cell-based, human; details: 10 uM, 6 h; for Cleavage of caspase-3: FIG. 7
Method: Cell culture: Human leukemia K562 cells, obtained from ATCC (American Type Culture Collection), were maintained in RPMI 1640 medium containing 100 units/ml penicillin G, 100 μg/ml streptomycin, 10% (v/v) fetal calf serum in a humidified atmosphere with 5% CO2 at 37° C. The ability of the cells to exclude trypan Blue dye was used to assess cell viability.
Cell treatment: K562 cells were stored in 0.5% FBS for 15 min before the experiment. The cells, 6×10^5, were treated with DMSO as vehicle, or with PBT-3, PBT-4, or compounds A, B, C and D at 10 uM/dish (8 ml). Gleevec™ (STI) was used at 5 μM/dish. All experiments were without FBS and treatment lasted 6 h at 37° C. Treatment was terminated by washing the cells with ice-cold PBS buffer by centrifugation at 500×g for 5 min. Cells were lysed in buffer containing 20 mM Tris-HCl buffer, pH 7.4, 150 NaCl, 1 mM EDTA, 1 mM EGTA, 1% Triton X-100 2.5 mM sodium pyrophosphate, 1 mM beta-glycerophosphate, 1 mM sodium orthovanadate, 1 mM PMSF and 1 μM leupeptin/1 μM Aprotinin/1 μM pepstain A, on ice for 30 min. The lysates were clarified by centrifugation at 15,000×g for 15 min at 4° C. Lysates were subjected to protein assay (BCA, Pierce) and kept at −80° C.
Western blot: Thirty micrograms of protein from each sample were taken, and SDS-PAGE sample loading buffer was added. The mixture was boiled for 5 min. After centrifugation, the samples were loaded onto 15% SDS-PAGE gel and the gel was run (BioRad Protein II) for 2-3 h at 20 mA. The protein was transferred to a Trans-blot Nitrocellulose membrane (Millipore). Protein bands on the membranes were checked visually with Ponceau S-staining to ensure equivalent protein load/transfer comparing different samples. Membranes were blocked with 5% non-fat dry milk in PBS containing 0.5% Tween-20 for 1 h at room temperature, and then incubated with 1:1000 dilution of anti-caspase-3 antibody (BD Transduction Laboratories, Mississauga, Canada) overnight at 4° C. Secondary antibody of horseradish peroxidase anti-mouse antibody was used at 1:2000 dilution. Bound antibodies were detected by using enhanced chemilluminescence (ECL kit, Amersham Pharmacia Biotech) and the membranes were exposed to Hyper film for ECL detection. The same membrane was stripped by placing in buffer containing 62.5 mM Tris-HCl, pH 6.8/2% SDS/100 mM beta-mercaptoethanol at 50° C. for 30 min. The membrane was washed 3 times with PBS containing 0.5% Tween-20. The membrane was blocked by PBS buffer containing 0.5% Tween-20 and 5% skim milk. The anti-tubulin antibody (Santa Cruz, Calif.) was diluted 1:1000 and membrane analyzed by ECL as described above.

[3] = test system: washed human platelets; experiment: I-BOP evoked human platelet aggregation in vitro with washed platelets; assay type: cell-based; details: for IC50: washed human platelets, 5 ng I-BOP, compounds are methyl esters, read-out: IC50, inhibition of I-BOP evoked human platelet aggregation
Method: Washed human platelets were prepared as previously described (Pace-Asciak et al., 2002). The aggregation of platelets was carried out in a conventional 4-well aggregometer with stirring of the suspension maintained at 37° C. The platelet suspension was caused to aggregate with a thromboxane stable analog, I-BOP. The isolated enantiomer compounds and their respective racemates, PBT-3 and PBT-4, were added at various concentrations to cuvettes containing 375×10^6 platelets/ml, 1 min prior to the addition of 5 ng I-BOP (Cayman Chemicals, Ann Arbor, Mich.). Aggregation was monitored for an additional 5 min.

[4] = test system: human leukemic K562 cells; experiment: Inhibition of 3H-methyl thymidine incorporation (cell proliferation) in K562 cells; assay type: cell-based; details: for IC50: 6 h treatment, compounds are methyl esters
Method: The human leukemic K562 cell line was established as previously reported (Qiao et al., 2003). Cells were maintained as suspension cultures in RPMI 1640 medium supplemented with 100 1.1/ml penicillin G, 100 μg/ml streptomycin, 10% (v/v) […] in a humidified atmosphere of 5% CO2 at 37° C. Cell viability was assessed by the exclusion of Trypan blue. Incorporation of ^3H-methyl thymidine into cell DNA was used as an assay for cell proliferation. Cells ([…]) were starved for 12 h, and were subsequently treated with the test compounds. Compounds A, B, C and D were made up at various concentrations in DMSO ([…] A, B, C and D. Concentrations were doubled for racemates PBT-3 and PBT-4) and 1 of these solutions was added/ml volume of cells. Cells were suspended in RPMI 1640 medium. At 6 h post-treatment at 37° C. the cells were fixed and denatured essentially as described in Qiao et al. (2003), harvested and passed through Whatman GF/C glass filters. The filters were washed and counted for radioactivity.

| PPAR gamma transactivation, result in words [1] | PPAR Activation as % of positive control (Avandia) ([1]; Experiment 1, 0.1 microM) | PPAR Activation as % of positive control (Avandia) ([1]; Experiment 1, 1 microM) | PPAR Activation as % of positive control (Avandia) ([1]; Experiment 2, 0.1 microM) | PPAR Activation as % of positive control (Avandia) ([1]; Experiment 2, 1 microM) | PPAR Activation as % of positive control (Avandia) ([1]; Experiment 2, 10 microM) | PPAR Activation as % of positive control (Avandia) ([1]; Experiment 3, 0.1 microM) | PPAR Activation as % of positive control (Avandia) ([1]; Experiment 3, 1 microM) | PPAR Activation as % of positive control (Avandia) ([1]; Experiment 3, 10 microM) | IC50 [3] | IC50 [4] | Structure (SMILES) | PPAR Activation as % of positive control (Avandia) ([1]; Experiment 1, 10 microM) | Cleavage of caspase-3 compared with Compound B [2] | Cleavage of caspase-3 [2] | Potency relative to Compound B, inhibition of platelet aggregation ([3]; I-BOP evoked aggregation) | Potency relative to racemic PBT-3, inhibition of platelet aggregation ([3]; I-BOP evoked aggregation) | Potency relative to racemic PBT-3, inhibition of platelet aggregation ([3]; I-BOP evoked aggregation, listed as compound A) | Activity relative to Compound D, cell proliferation assay [4] |
| --- | --- | --- | --- | --- | --- | --- | --- | --- | --- | --- | --- | --- | --- | --- | --- | --- | --- | --- |
| no apparent difference | 11 +/− 4 % of positive control (Avandia) | 14 +/− 4 % of positive control (Avandia) | 4 +/− 1 % of positive control (Avandia) | 11 +/− 1 % of positive control (Avandia) | 34 +/− 1 % of positive control (Avandia) | 8 +/− 2 % of positive control (Avandia) | 12 +/− 1 % of positive control (Avandia) | 27 +/− 5 % of positive control (Avandia) | 27 ± 7 nM | 3.6 µM | CCCCC/C=C\C[C@H]1C[C@@H]1[C@H](O)/C=C\C/C=C\CCCC(=O)OC [Compound A, 10R-hydroxy-11S,12S-cyclopropyl-eicosa-5Z,8Z,14Z-trienoic acid methyl ester] | 63 +/− 34 % of positive control (Avandia) | more active than Compound B | increased cleavage of caspase-3 | nearly four times as active; also recorded: about four times more potent | twice as potent | 2 fold | – |
| – | 14 +/− 4 % of positive control (Avandia) | 16 +/− 3 % of positive control (Avandia) | 4 +/− 1 % of positive control (Avandia) | 6 +/− 1 % of positive control (Avandia) | 14 +/− 1 % of positive control (Avandia) | 9 +/− 3 % of positive control (Avandia) | 7 +/− 1 % of positive control (Avandia) | 17 +/− 3 % of positive control (Avandia) | 60 ± 12 nM | 4 µM | CCCCC/C=C\CC1CC1C(O)/C=C\C/C=C\CCCC(=O)OC (stereo not drawn) [Compound C, 10R-hydroxy-11R,12R-cyclopropyl-eicosa-5Z,8Z,14Z-trienoic acid methyl ester] | 38 +/− 8 % of positive control (Avandia) | – | increased cleavage of caspase-3 | – | – | – | 1.3 fold |

| Structure (SMILES) | PPAR gamma transactivation, result in words [1] | PPAR Activation as % of positive control (Avandia) ([1]; Experiment 1, 0.1 microM) | PPAR Activation as % of positive control (Avandia) ([1]; Experiment 1, 1 microM) | PPAR Activation as % of positive control (Avandia) ([1]; Experiment 2, 0.1 microM) | PPAR Activation as % of positive control (Avandia) ([1]; Experiment 2, 1 microM) | PPAR Activation as % of positive control (Avandia) ([1]; Experiment 2, 10 microM) | PPAR Activation as % of positive control (Avandia) ([1]; Experiment 3, 0.1 microM) | PPAR Activation as % of positive control (Avandia) ([1]; Experiment 3, 1 microM) | PPAR Activation as % of positive control (Avandia) ([1]; Experiment 3, 10 microM) | IC50 [3] | IC50 [4] | PPAR Activation as % of positive control (Avandia) ([1]; Experiment 1, 10 microM) | Cleavage of caspase-3 compared with Compound B [2] | Cleavage of caspase-3 [2] | Potency relative to Compound B, inhibition of platelet aggregation ([3]; I-BOP evoked aggregation) | Potency relative to racemic PBT-3, inhibition of platelet aggregation ([3]; I-BOP evoked aggregation) | Potency relative to racemic PBT-3, inhibition of platelet aggregation ([3]; I-BOP evoked aggregation, listed as compound A) | Activity relative to Compound D, cell proliferation assay [4] |
| --- | --- | --- | --- | --- | --- | --- | --- | --- | --- | --- | --- | --- | --- | --- | --- | --- | --- | --- |
| CCCCC/C=C\CC1CC1C(O)/C=C\C/C=C\CCCC(=O)OC (stereo not drawn) [Compound B, 10S-hydroxy-11R,12R-cyclopropyl-eicosa-5Z,8Z,14Z-trienoic acid methyl ester] | no apparent difference | 11 +/− 3 % of positive control (Avandia) | 21 +/− 3 % of positive control (Avandia) | 4 +/− 1 % of positive control (Avandia) | 10 +/− 1 % of positive control (Avandia) | 35 +/− 11 % of positive control (Avandia) | 10 +/− 3 % of positive control (Avandia) | 16 +/− 6 % of positive control (Avandia) | 30 +/− 10 % of positive control (Avandia) | 101 ± 27 nM | 7.6 µM | 44 +/− 11 % of positive control (Avandia) | – | increased cleavage of caspase-3 | – | – | – | – |
| CCCCC/C=C\CC1CC1C(O)/C=C\C/C=C\CCCC(=O)OC (stereo not drawn) [Compound D, 10S-hydroxy-11S,12S-cyclopropyl-eicosa-5Z,8Z,14Z-trienoic acid methyl ester] | more effectively than Compound C; also recorded: improved PPAR gamma transactivating activity over Compound C; also recorded: higher fold PPAR gamma transactivation than compound C | 14 +/− 3 % of positive control (Avandia) | 17 +/− 3 % of positive control (Avandia) | 4 +/− 1 % of positive control (Avandia) | 5 +/− 1 % of positive control (Avandia) | 18 +/− 1 % of positive control (Avandia) | 7 +/− 2 % of positive control (Avandia) | 8 +/− 1 % of positive control (Avandia) | 33 +/− 7 % of positive control (Avandia) | 82 ± 18 nM | 5.2 µM | 69 +/− 15 % of positive control (Avandia) | – | increased cleavage of caspase-3 | – | – | – | – |
